# Source: PubChem BioAssay (NCI)
#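 Protocol summary: plate cells (96-well), add compound at 5 concentrations, incubate 48 h, interpolate endpoints linearly. The concentration for full growth arrest is given as TGI.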
# What was measured:
# Test in all cases: NCI tumour cell line growth inhibition, 48 h
# NCI-H23 lung = system: NCI-H23 lung
# TK-10 renal = system: TK-10 renal
# SW-620 colon = system: SW-620 colon
# MDA-MB-231 breast = system: MDA-MB-231 breast
# HCT-15 colon = system: HCT-15 colon
# HL-60(TB) leukemia = system: HL-60(TB) leukemia
# K-562 leukemia = system: K-562 leukemia
# HS 578T breast = system: HS 578T breast
# SNB-19 CNS = system: SNB-19 CNS
# IGROV1 ovarian = system: IGROV1 ovarian
# LOX IMVI melanoma = system: LOX IMVI melanoma
# KM12 colon = system: KM12 colon
# A549 NSCLC = system: A549 NSCLC
# NCI-H226 lung = system: NCI-H226 lung
# T-47D breast = system: T-47D breast
# HOP-62 NSCLC = system: HOP-62 NSCLC
# MDA-N = system: MDA-N
# HCT-116 colon = system: HCT-116 colon
# OVCAR-3 ovarian = system: OVCAR-3 ovarian
# NCI-H522 lung = system: NCI-H522 lung
# 786-0 renal = system: 786-0 renal
# DU-145 prostate = system: DU-145 prostate
# SF-268 CNS = system: SF-268 CNS
# UACC-257 melanoma = system: UACC-257 melanoma
# SN12C renal = system: SN12C renal
# PC-3 prostate = system: PC-3 prostate
# RXF 393 renal = system: RXF 393 renal
# OVCAR-8 ovarian = system: OVCAR-8 ovarian
# RPMI-8226 leukemia = system: RPMI-8226 leukemia
# SF-295 CNS = system: SF-295 CNS
# SK-MEL-28 melanoma = system: SK-MEL-28 melanoma
# OVCAR-5 ovarian = system: OVCAR-5 ovarian
# SF-539 CNS = system: SF-539 CNS
# UO-31 renal = system: UO-31 renal
# U251 CNS = system: U251 CNS
# CAKI-1 renal = system: CAKI-1 renal
# M14 melanoma = system: M14 melanoma
# HCC-2998 colon = system: HCC-2998 colon
# ACHN renal = system: ACHN renal
# SK-MEL-5 melanoma = system: SK-MEL-5 melanoma
# MOLT-4 leukemia = system: MOLT-4 leukemia
# BT-549 breast = system: BT-549 breast
# NCI-H460 lung = system: NCI-H460 lung
# HT29 colon = system: HT29 colon
# MCF7 breast = system: MCF7 breast
# UACC-62 melanoma = system: UACC-62 melanoma
# SR leukemia = system: SR leukemia
# SK-MEL-2 melanoma = system: SK-MEL-2 melanoma
# MALME-3M melanoma = system: MALME-3M melanoma
# NCI/ADR-RES ovarian = system: NCI/ADR-RES ovarian
# SNB-75 CNS = system: SNB-75 CNS
# MDA-MB-435 = system: MDA-MB-435
# CCRF-CEM leukemia = system: CCRF-CEM leukemia
# OVCAR-4 ovarian = system: OVCAR-4 ovarian
# COLO 205 colon = system: COLO 205 colon
# HOP-92 NSCLC = system: HOP-92 NSCLC
# A498 renal = system: A498 renal
# EKVX NSCLC = system: EKVX NSCLC
# SK-OV-3 ovarian = system: SK-OV-3 ovarian
smiles,measurement,setting,value
Cc1ccc(-c2n[nH]c(=O)n2N2C(=O)c3ccccc3C2=O)cc1,TGI,NCI-H23 lung,> 100 µM
same,TGI,TK-10 renal,> 100 µM
same,TGI,SW-620 colon,> 100 µM
same,TGI,MDA-MB-231 breast,> 100 µM
same,TGI,HCT-15 colon,> 100 µM
same,TGI,HL-60(TB) leukemia,> 100 µM
same,TGI,K-562 leukemia,> 100 µM
same,TGI,HS 578T breast,> 100 µM
same,TGI,SNB-19 CNS,> 100 µM
same,TGI,IGROV1 ovarian,> 100 µM
same,TGI,LOX IMVI melanoma,> 100 µM
same,TGI,KM12 colon,> 100 µM
same,TGI,A549 NSCLC,> 100 µM
same,TGI,NCI-H226 lung,> 100 µM
same,TGI,T-47D breast,> 100 µM
same,TGI,HOP-62 NSCLC,> 100 µM
same,TGI,MDA-N,> 100 µM
same,TGI,HCT-116 colon,> 100 µM
same,TGI,OVCAR-3 ovarian,> 100 µM
same,TGI,NCI-H522 lung,> 100 µM
same,TGI,786-0 renal,> 100 µM
same,TGI,DU-145 prostate,> 100 µM
same,TGI,SF-268 CNS,> 100 µM
same,TGI,UACC-257 melanoma,> 100 µM
same,TGI,SN12C renal,> 100 µM
same,TGI,PC-3 prostate,> 100 µM
same,TGI,RXF 393 renal,> 100 µM
same,TGI,OVCAR-8 ovarian,> 100 µM
same,TGI,RPMI-8226 leukemia,> 100 µM
same,TGI,SF-295 CNS,> 100 µM
same,TGI,SK-MEL-28 melanoma,> 100 µM
same,TGI,OVCAR-5 ovarian,> 100 µM
same,TGI,SF-539 CNS,> 100 µM
same,TGI,UO-31 renal,> 100 µM
same,TGI,U251 CNS,> 100 µM
same,TGI,CAKI-1 renal,> 100 µM
same,TGI,M14 melanoma,> 100 µM
same,TGI,HCC-2998 colon,> 100 µM
same,TGI,ACHN renal,> 100 µM
same,TGI,SK-MEL-5 melanoma,> 100 µM
same,TGI,MOLT-4 leukemia,> 100 µM
same,TGI,BT-549 breast,> 100 µM
same,TGI,NCI-H460 lung,> 100 µM
same,TGI,HT29 colon,> 100 µM
same,TGI,MCF7 breast,> 100 µM
same,TGI,UACC-62 melanoma,> 100 µM
same,TGI,SR leukemia,> 100 µM
same,TGI,SK-MEL-2 melanoma,> 100 µM
same,TGI,MALME-3M melanoma,> 100 µM
same,TGI,NCI/ADR-RES ovarian,> 100 µM
same,TGI,SNB-75 CNS,> 100 µM
same,TGI,MDA-MB-435,> 100 µM
COC(=O)C1SC(SC)=NC12c1ccccc1Nc1ccccc12 (stereo unspecified),TGI,NCI-H23 lung,38.9 µM
same,TGI,CCRF-CEM leukemia,> 100 µM
same,TGI,TK-10 renal,> 100 µM
same,TGI,SW-620 colon,> 100 µM
same,TGI,OVCAR-4 ovarian,> 100 µM
same,TGI,HCT-15 colon,> 100 µM
same,TGI,HL-60(TB) leukemia,87.9 µM
same,TGI,K-562 leukemia,> 100 µM
same,TGI,HS 578T breast,> 100 µM
same,TGI,SNB-19 CNS,> 100 µM
same,TGI,IGROV1 ovarian,> 100 µM
same,TGI,LOX IMVI melanoma,32.2 µM
same,TGI,KM12 colon,> 100 µM
same,TGI,A549 NSCLC,> 100 µM
same,TGI,NCI-H226 lung,> 100 µM
same,TGI,T-47D breast,> 100 µM
same,TGI,HOP-62 NSCLC,> 100 µM
same,TGI,MDA-N,70.6 µM
same,TGI,HCT-116 colon,> 100 µM
same,TGI,OVCAR-3 ovarian,45.8 µM
same,TGI,NCI-H522 lung,49.3 µM
same,TGI,786-0 renal,> 100 µM
same,TGI,DU-145 prostate,> 100 µM
same,TGI,SF-268 CNS,> 100 µM
same,TGI,UACC-257 melanoma,84.6 µM
same,TGI,SN12C renal,> 100 µM
same,TGI,PC-3 prostate,87 µM
same,TGI,COLO 205 colon,39.3 µM
same,TGI,RXF 393 renal,> 100 µM
same,TGI,OVCAR-8 ovarian,> 100 µM
same,TGI,HOP-92 NSCLC,69.8 µM
same,TGI,A498 renal,> 100 µM
same,TGI,RPMI-8226 leukemia,49.4 µM
same,TGI,SF-295 CNS,> 100 µM
same,TGI,SK-MEL-28 melanoma,48.5 µM
same,TGI,OVCAR-5 ovarian,> 100 µM
same,TGI,SF-539 CNS,35.4 µM
same,TGI,UO-31 renal,> 100 µM
same,TGI,U251 CNS,66.6 µM
same,TGI,CAKI-1 renal,> 100 µM
same,TGI,M14 melanoma,40.1 µM
same,TGI,HCC-2998 colon,74.3 µM
same,TGI,ACHN renal,> 100 µM
same,TGI,SK-MEL-5 melanoma,31 µM
same,TGI,MOLT-4 leukemia,71.1 µM
same,TGI,EKVX NSCLC,> 100 µM
same,TGI,BT-549 breast,58.6 µM
same,TGI,NCI-H460 lung,56.1 µM
same,TGI,HT29 colon,> 100 µM
same,TGI,MCF7 breast,82.7 µM
same,TGI,UACC-62 melanoma,34 µM
same,TGI,SR leukemia,53.4 µM
same,TGI,SK-MEL-2 melanoma,47.3 µM
same,TGI,SK-OV-3 ovarian,> 100 µM
same,TGI,MALME-3M melanoma,65.1 µM
same,TGI,NCI/ADR-RES ovarian,> 100 µM
same,TGI,SNB-75 CNS,> 100 µM
same,TGI,MDA-MB-435,67.8 µM
S=C1Nc2ccccc2SC1c1ccccc1 (stereo unspecified),TGI,NCI-H23 lung,> 100 µM
same,TGI,CCRF-CEM leukemia,> 100 µM
same,TGI,TK-10 renal,> 100 µM
same,TGI,MDA-MB-231 breast,> 100 µM
same,TGI,OVCAR-4 ovarian,> 100 µM
same,TGI,HCT-15 colon,> 100 µM
same,TGI,HL-60(TB) leukemia,> 100 µM
same,TGI,K-562 leukemia,> 100 µM
same,TGI,HS 578T breast,83.2 µM
same,TGI,SNB-19 CNS,> 100 µM
same,TGI,IGROV1 ovarian,> 100 µM
same,TGI,LOX IMVI melanoma,> 100 µM
same,TGI,KM12 colon,> 100 µM
same,TGI,A549 NSCLC,> 100 µM
same,TGI,NCI-H226 lung,> 100 µM
same,TGI,T-47D breast,> 100 µM
same,TGI,HOP-62 NSCLC,55.2 µM
same,TGI,MDA-N,> 100 µM
same,TGI,HCT-116 colon,> 100 µM
same,TGI,OVCAR-3 ovarian,> 100 µM
same,TGI,NCI-H522 lung,> 100 µM
same,TGI,786-0 renal,> 100 µM
same,TGI,DU-145 prostate,> 100 µM
same,TGI,SF-268 CNS,> 100 µM
same,TGI,UACC-257 melanoma,> 100 µM
same,TGI,SN12C renal,> 100 µM
same,TGI,PC-3 prostate,> 100 µM
same,TGI,COLO 205 colon,> 100 µM
same,TGI,RXF 393 renal,92.5 µM
same,TGI,OVCAR-8 ovarian,> 100 µM
same,TGI,RPMI-8226 leukemia,> 100 µM
same,TGI,SF-295 CNS,> 100 µM
same,TGI,SK-MEL-28 melanoma,> 100 µM
same,TGI,OVCAR-5 ovarian,> 100 µM
same,TGI,UO-31 renal,> 100 µM
same,TGI,U251 CNS,> 100 µM
same,TGI,CAKI-1 renal,> 100 µM
same,TGI,M14 melanoma,> 100 µM
same,TGI,ACHN renal,> 100 µM
same,TGI,SK-MEL-5 melanoma,> 100 µM
same,TGI,MOLT-4 leukemia,> 100 µM
same,TGI,EKVX NSCLC,> 100 µM
same,TGI,BT-549 breast,> 100 µM
same,TGI,NCI-H460 lung,> 100 µM
same,TGI,HT29 colon,> 100 µM
same,TGI,MCF7 breast,> 100 µM
same,TGI,UACC-62 melanoma,> 100 µM
same,TGI,SR leukemia,> 100 µM
same,TGI,SK-OV-3 ovarian,> 100 µM
same,TGI,MALME-3M melanoma,> 100 µM
same,TGI,NCI/ADR-RES ovarian,> 100 µM
same,TGI,SNB-75 CNS,71.3 µM
same,TGI,MDA-MB-435,> 100 µM
Nc1nc(SCCc2ccccc2)c2[nH]cnc2n1,TGI,NCI-H23 lung,> 100 µM
same,TGI,CCRF-CEM leukemia,> 100 µM
same,TGI,TK-10 renal,67.9 µM
same,TGI,SW-620 colon,> 100 µM
same,TGI,MDA-MB-231 breast,> 100 µM
same,TGI,OVCAR-4 ovarian,> 100 µM
same,TGI,HCT-15 colon,> 100 µM
same,TGI,K-562 leukemia,> 100 µM
same,TGI,HS 578T breast,> 100 µM
same,TGI,SNB-19 CNS,> 100 µM
same,TGI,IGROV1 ovarian,> 100 µM
same,TGI,LOX IMVI melanoma,> 100 µM
same,TGI,KM12 colon,> 100 µM
same,TGI,A549 NSCLC,> 100 µM
same,TGI,NCI-H226 lung,> 100 µM
same,TGI,T-47D breast,> 100 µM
same,TGI,HOP-62 NSCLC,> 100 µM
same,TGI,MDA-N,> 100 µM
same,TGI,HCT-116 colon,> 100 µM
same,TGI,OVCAR-3 ovarian,> 100 µM
same,TGI,NCI-H522 lung,> 100 µM
same,TGI,786-0 renal,> 100 µM
same,TGI,DU-145 prostate,> 100 µM
same,TGI,SF-268 CNS,> 100 µM
same,TGI,UACC-257 melanoma,67.5 µM
same,TGI,SN12C renal,> 100 µM
same,TGI,PC-3 prostate,> 100 µM
same,TGI,RXF 393 renal,> 100 µM
same,TGI,OVCAR-8 ovarian,> 100 µM
same,TGI,HOP-92 NSCLC,> 100 µM
same,TGI,A498 renal,61 µM
same,TGI,SF-295 CNS,> 100 µM
same,TGI,SK-MEL-28 melanoma,> 100 µM
same,TGI,OVCAR-5 ovarian,> 100 µM
same,TGI,UO-31 renal,> 100 µM
same,TGI,U251 CNS,> 100 µM
same,TGI,CAKI-1 renal,> 100 µM
same,TGI,M14 melanoma,> 100 µM
same,TGI,HCC-2998 colon,93.8 µM
same,TGI,ACHN renal,> 100 µM
same,TGI,SK-MEL-5 melanoma,> 100 µM
same,TGI,MOLT-4 leukemia,> 100 µM
same,TGI,EKVX NSCLC,78.8 µM
same,TGI,BT-549 breast,> 100 µM
same,TGI,NCI-H460 lung,> 100 µM
same,TGI,HT29 colon,> 100 µM
same,TGI,UACC-62 melanoma,> 100 µM
same,TGI,SR leukemia,> 100 µM
same,TGI,SK-MEL-2 melanoma,82.9 µM
same,TGI,MALME-3M melanoma,> 100 µM
same,TGI,NCI/ADR-RES ovarian,> 100 µM
same,TGI,SNB-75 CNS,> 100 µM
same,TGI,MDA-MB-435,> 100 µM
